Test results: patent publication US12180612B2, “Plant tissue-derived nanofibres” (priority 2018, dated 2024)
Several values for one entry are separate records, joined by “and”; a condition that tells them apart may be missing. Identical values can stand only once. Entries after “also recorded” stand apart in the source; their conditions may differ. Like-named read-outs stand apart in the source and are kept apart here. One block for each molecule: values may come before it.

Experiments:
[1] = system: normal human intestinal CRL 1790 cells; test: Uptake of calcein and calcein-loaded nanofibres, confocal microscopy; assay type: cell-based
Procedure: (§1) Calcein uptake into HT 29, CRL 1790 cells: Uptake of calcein-loaded nanoparticles into mammalian cells. Calcein by itself is impermeable through membrane, and may be taken up at a low level by endocytosis. Ethanol-bleached cherry was homogenized in water, also containing 1 mg/g fresh weight equivalent of calcein, and the supernatant dialyzed against water. Calcein complexed to nanofilaments is retained within the dialysis bag, and used for uptake measurements by confocal microscopy.
(§2) Uptake of complexed molecules by nanofibres: Nanofibres are extremely long (micrometers in length, ˜5 nm in diameter; see FIG. 37, for example), and their ability to cross the plasma membrane was investigated. In this experiment, the ability of nanofibres to form natural complexes with a membrane impermeable fluorescent dye, calcein, was investigated. Nanofibres where prepared from ethanol-bleached cherry by procedures described herein above. […] HT-29 and CRL-1790 cells were incubated in the presence of calcein alone, and calcein-complexed nanofibres (of equal fluorescence intensity). Uptake of calcein and calcein complexed with nanofibres were monitored by confocal microscopy. […] Similar experiments were also conducted with nanoparticles, however, because of quenching of fluorescence by polyphenols, successful acquisition of images was not achieved.

[2] = system: HT 29 cells; test: as above; assay type: cell-based, human
Procedure: as §1, §2

[3] = system: normal human colonic epithelial cells (CRL 1790)
Procedure: (§3) Cell culture: Three cell lines derived from colon, CRL 1790, a normal cell line, HT 29, a colorectal cancer cell line and CRL 2158 a multidrug resistant colorectal cancer cell line (ATCC) were used to evaluate the cytotoxicity of nanocomplexes. Cells were cultured in media specifically recommended for each cell line. For HT 29, the medium used was DMEM (Dulbecco's modified Eagle's medium, Sigma), for CRL 2158, the medium used was RPMI, and for CRL 1790, the medium used was EMEM (Eagle's minimum essential medium; Cedarlane Labs, Burlington, ON, Canada). All the media were supplemented with FBS, Penicillin/streptomycin, and L-glutamine. At confluency (˜80%), cells were washed with 1×PBS twice. Cells were incubated with trypsin-EDTA for 5 minutes and then diluted in respective media supplemented with 10% FBS before staining with trypan blue (50 μl of cells and 450 μl of trypan blue) and counting viable cells to evaluate cytotoxicity. The cytotoxicity was determined by trypan blue exclusion by living cells and blue staining of dead cells. The number of dead cells in a unit area was counted and expressed as a percentage of total cells in the area.
(§4) Cytotoxicity of nanoparticles and nanofibres against cancer cells: These studies evaluate the cytotoxic effects of the purified nanoparticles and the nanofibres isolated from sour cherry using normal human colonic epithelial cells (CRL 1790), human colorectal cancer cells (HT 29) and multidrug resistant human colorectal cancer cells (CRL 2158) in the presence or absence of paclitaxel. Nanoparticles were added as polyphenol equivalent aliquots, while the nanofibres were added on a weight basis. […]

[4] = system: human colorectal cancer cells (HT 29)
Procedure: as §3, §4

[5] = system: multidrug resistant human colorectal cancer cells (CRL 2158)
Procedure: as §3, §4

[6] = system: Normal Human Intestinal Cells (CRL 1790); settings: B-Live/Dead cell analysis; paclitaxel 32 nM, 24 h, without or with nanofibre 4 μg/ml
Procedure: (§5) Live-Dead cell analysis: Cells were grown as confluent and subconfluent monolayers for 24 h as described previously (Hakimuddin et al., 2004). Cells were treated with paclitaxel, or paclitaxel along with nanofibers for 12 h (Appropriate amounts of paclitaxel and nanofibers were mixed in 5% DMSO in water, and added to the cells). Cells were washed with phosphate buffer and cell viability tests performed on CRL 1790, CRL 2158 and HT 29 cells using a live/dead cell viability kit (Invitrogen, Mississauga, Ontario) as described by the manufacturer. Live dead cells were visualized under a confocal microscope. The assay kit contains two fluorescent dyes, calcein AM ester (Ex 494 nm, Em 517 nm) which specifically enters live cells, gets de-esterified and stains the live cells green. The dying cells as well as dead cells are membrane compromised (leaky plasma membrane) and allows the entry of ethidium homodimer Ex 517 nm/Em 617), which stains the nucleus red.
(§6) Differentiating cytotoxicity by Live-Dead cell analysis: Further studies were performed to investigate delivery of paclitaxel using nanofibres into various cell lines. To further evaluate the efficiency of nanofibres in enhancing cytotoxicity of paclitaxel, live-dead cell analysis was conducted. Normal cells (CRL 1790), cancer cells (HT-29) and the MDR cells (CRL 2158) were cultured and exposed to paclitaxel alone, and paclitaxel along with nanofibres. The cells were cultured for 24 h at which time point, paclitaxel and the nanofibres were added to the culture. Live dead cell analysis was performed 24 h after exposure to the drug. […] The assay kit (Invitrogen) contains two fluorescent dyes, calcein AM ester (Ex 494 nm, Em 517 nm) which specifically enters live cells, gets de-esterified and stains the live cells green. The dying cells as well as dead cells are membrane compromised (leaky plasma membrane) and allows the entry of ethidium homodimer (Ex 517 nm/Em 617), which stains the nucleus red. […] Panels B, C represent control cells visualized at 617 nm (red, dead cells) and at 517 nm (green, live cells), respectively. Panel A is a composite image of untreated cells. Panels E, F represent the images of cells treated with paclitaxel (32 nM) recorded at the two wavelengths 617 and 517 nm respectively. Panel D is a composite image. Panels H and I show the cells treated with paclitaxel+nanofibres (32 nM+4 μg/ml nanofibers, the fibers and appropriate amount of paclitaxel were mixed in 5% DMSO and added to the culture medium of cells and allowed to incubate for 12 h). Panel G is a composite of the red and green images.

[7] = system: Human colorectal MDR cancer Cells (CRL 2158); settings: B-Live/Dead cell analysis, paclitaxel 32 nM, 24 h, without or with nanofibre 4 μg/ml
Procedure: as §5, §6

[8] = system: human colorectal cancer cells (HT 29); settings: B-Live/Dead cell analysis; paclitaxel 32 nM, 24 h, without or with nanofibre 4 μg/ml
Procedure: as §5, §6

[9] = DPPH radical scavenging capacity of food powder; assay type: biochemical; settings: positive control at the same concentrations as polyphenols
Procedure: The powder was dissolved in water and the antioxidant capacity of the solution was determined by estimating the DPPH Radical scavenging capacity of solution as polyphenol equivalent (estimated by Folin-Ciocalteau reagent) in micrograms. A 0.1 mM Folin-Ciocateau reagent was prepared in methanol, and the food powder solution was added in the specified amounts. The antioxidants were allowed to react with 1 ml of DPPH reagent, and the absorbance (purple, 517 nm absorption) was monitored. The decline in 517 nm absorbance was noted and expressed as % quenching in comparison to a control without polyphenol. […] Each point at a concentration represents an individual sample of food powder prepared;
The powder was dissolved in water and the antioxidant capacity of the solution was determined by estimating the DPPH Radical scavenging capacity of solution as polyphenol equivalent (estmated by Folin-Ciocalteau reagent) in micrograms. A 0.1 mM Folin-Ciocateau reagent was prepared in methanol, and the food powder solution was added in the specified amounts. The antioxidants were allowed to react with 1 ml of DPPH reagent, and the absorbance (purple, 517 nm absorption) was monitored. The decline in 517 nm absorbance was noted and expressed as % quenching in comparison to a control without polyphenol. […] Each point at a concentration represents an individual sample of food powder prepared.

uptake into cells (in words) [1]: comparatively very low
Structure (SMILES): O=C(O)CN(CC(=O)O)Cc1cc2c(cc1O)Oc1cc(O)c(CN(CC(=O)O)CC(=O)O)cc1C21OC(=O)c2ccccc21 [Calcein]
uptake into cells (in words) [2]: comparatively very low; also recorded: Far reduced uptake

Structure (SMILES): CC(=O)O[C@H]1C(=O)[C@@]2(C)[C@H]([C@H](OC(=O)c3ccccc3)[C@]3(O)C[C@H](OC(=O)[C@H](O)[C@@H](NC(=O)c4ccccc4)c4ccccc4)C(C)=C1C3(C)C)[C@]1(OC(C)=O)CO[C@@H]1C[C@@H]2O [Paclitaxel]
% Living cells Normal Cell Line CRL 1790 ([3]; Paclitaxel 2 nM): 86.66% | % Living cells Normal Cell Line CRL 1790 ([3]; Paclitaxel 8 nM): 74.28% | % Living cells Normal Cell Line CRL 1790 ([3]; Paclitaxel 32 nM): 66.79% | % Living cells Colorectal Cancer Cell Line HT 29 ([4]; Paclitaxel 2 nM): 70.93% | % Living cells Colorectal Cancer Cell Line HT 29 ([4]; Paclitaxel 8 nM): 59.11% | % Living cells Colorectal Cancer Cell Line HT 29 ([4]; Paclitaxel 32 nM): 50% and 48.27% | % Living cells Colorectal MDR cell line CRL 2158 ([5]; Paclitaxel 2 nM): 90.86% | % Living cells Colorectal MDR cell line CRL 2158 ([5]; Paclitaxel 8 nM): 86.17% | % Living cells Colorectal MDR cell line CRL 2158 ([5]; Paclitaxel 32 nM): 83.76% | % Living cells Normal Cell Line CRL 1790 [6]: 97.6% | % Living cells Colorectal MDR cell line CRL 2158 [7]: 46.00% | % Living cells Colorectal MDR cell line CRL 2158 ([7]; listed as paclitaxel): ~50% | % Living cells Colorectal Cancer Cell Line HT 29 [8]: 10.78%

Structure (SMILES): Cc1c(C)c2c(c(C)c1O)CCC(C)(C(=O)O)O2 (stereo not shown) [Trolox]
TEAC value [9]: 1
